Results published in ChEMBL document CHEMBL1201862, “PubChem BioAssay data set” (2004).
One block for each molecule: values may come before it. Calls of active or inactive are those of the source.

Columns and labels:
[1] = molecular target: T1, Trace amine-associated receptor 1 (Homo sapiens, UniProt Q96RJ0); experiment: Fluorescence-based cell-based high throughput dose response assay to identify agonists of the human trace amine associated receptor 1 (TAAR1).; format: functional
T1 sequence (Q96RJ0 whole entry): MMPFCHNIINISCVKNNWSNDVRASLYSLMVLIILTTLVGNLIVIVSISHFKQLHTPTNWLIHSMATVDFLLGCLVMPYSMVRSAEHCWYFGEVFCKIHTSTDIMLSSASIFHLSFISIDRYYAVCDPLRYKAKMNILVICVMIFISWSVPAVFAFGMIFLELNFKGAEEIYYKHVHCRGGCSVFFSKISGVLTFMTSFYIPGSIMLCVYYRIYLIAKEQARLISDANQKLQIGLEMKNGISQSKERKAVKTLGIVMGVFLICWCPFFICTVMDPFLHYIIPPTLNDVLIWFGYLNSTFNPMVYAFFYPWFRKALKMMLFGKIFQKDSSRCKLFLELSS

[2] = molecular target: T1, Trace amine-associated receptor 1; experiment: Counterscreen for agonists of the human trace amine associated receptor 1 (hTAAR1): Fluorescence-based cell-based high throughput dose response assay to identify hTAAR1 agonist that also desensitize TAAR1 receptor response.; format: functional
cells [3] = format: functional, cell-based
cells [4] = format: functional, cell-based; remark: listed apart in the source
[5] = OVCAR-3 cell viability loss – plate reader, dry powder samples, PAX8 inhibitor project, dose response (AID 743044); format: functional, cell-based
[6] = toxicity toward immortalized ovarian surface epithelium – cell-based, plate reader, dry powder samples, cytotoxicity control for PAX8 inhibitor project, dose response (AID 743045); format: functional
[7] = reduced cellular PGC1a acetyl-lysine signal – cell-based, cherry-picked samples, dose response (AID 720514); format: functional;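 note: potency may reflect raised or lowered acetylation signal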
[8] = IGROV1 cell killing – plate reader, dry powder samples, PAX8 inhibitor project, dose response (AID 743043); format: functional, cell-based; settings: IGROV-1
Protein Wnt-3a = Protein Wnt-3a (Mus musculus, UniProt P27467); experiment: antagonism of Wnt3a pathway luciferase reporter – Wnt-LIGHT cells, luminescence, selectivity assay for Gli-SUFU antagonist project, dose response (AID 651570); format: functional; settings: read-out: IC50_Mean;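 note: Wnt-LIGHT reporter cells stimulated with conditioned medium from Wnt3a-producing cells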
Chain of Protein Wnt-3a (P27467 whole entry): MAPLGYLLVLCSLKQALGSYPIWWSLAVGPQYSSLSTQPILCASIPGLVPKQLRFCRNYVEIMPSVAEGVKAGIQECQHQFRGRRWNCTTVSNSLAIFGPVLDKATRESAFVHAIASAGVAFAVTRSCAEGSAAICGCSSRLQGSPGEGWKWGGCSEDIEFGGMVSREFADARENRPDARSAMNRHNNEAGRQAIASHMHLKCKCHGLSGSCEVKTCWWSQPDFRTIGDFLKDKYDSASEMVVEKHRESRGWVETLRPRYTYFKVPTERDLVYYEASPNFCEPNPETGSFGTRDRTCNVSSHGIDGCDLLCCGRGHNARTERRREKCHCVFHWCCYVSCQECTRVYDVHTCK

[9] = molecular target: T2, 1-phosphatidylinositol 4,5-bisphosphate phosphodiesterase gamma-1 (Homo sapiens, UniProt P19174); experiment: Counterscreen for inhibitors of phospholipase C isozymes (PLC-B3): Fluorescence-based biochemical high throughput dose response assay to identify inhibitors of phospholipase C isozymes (PLC-gamma1).
T2 sequence (P19174 whole entry): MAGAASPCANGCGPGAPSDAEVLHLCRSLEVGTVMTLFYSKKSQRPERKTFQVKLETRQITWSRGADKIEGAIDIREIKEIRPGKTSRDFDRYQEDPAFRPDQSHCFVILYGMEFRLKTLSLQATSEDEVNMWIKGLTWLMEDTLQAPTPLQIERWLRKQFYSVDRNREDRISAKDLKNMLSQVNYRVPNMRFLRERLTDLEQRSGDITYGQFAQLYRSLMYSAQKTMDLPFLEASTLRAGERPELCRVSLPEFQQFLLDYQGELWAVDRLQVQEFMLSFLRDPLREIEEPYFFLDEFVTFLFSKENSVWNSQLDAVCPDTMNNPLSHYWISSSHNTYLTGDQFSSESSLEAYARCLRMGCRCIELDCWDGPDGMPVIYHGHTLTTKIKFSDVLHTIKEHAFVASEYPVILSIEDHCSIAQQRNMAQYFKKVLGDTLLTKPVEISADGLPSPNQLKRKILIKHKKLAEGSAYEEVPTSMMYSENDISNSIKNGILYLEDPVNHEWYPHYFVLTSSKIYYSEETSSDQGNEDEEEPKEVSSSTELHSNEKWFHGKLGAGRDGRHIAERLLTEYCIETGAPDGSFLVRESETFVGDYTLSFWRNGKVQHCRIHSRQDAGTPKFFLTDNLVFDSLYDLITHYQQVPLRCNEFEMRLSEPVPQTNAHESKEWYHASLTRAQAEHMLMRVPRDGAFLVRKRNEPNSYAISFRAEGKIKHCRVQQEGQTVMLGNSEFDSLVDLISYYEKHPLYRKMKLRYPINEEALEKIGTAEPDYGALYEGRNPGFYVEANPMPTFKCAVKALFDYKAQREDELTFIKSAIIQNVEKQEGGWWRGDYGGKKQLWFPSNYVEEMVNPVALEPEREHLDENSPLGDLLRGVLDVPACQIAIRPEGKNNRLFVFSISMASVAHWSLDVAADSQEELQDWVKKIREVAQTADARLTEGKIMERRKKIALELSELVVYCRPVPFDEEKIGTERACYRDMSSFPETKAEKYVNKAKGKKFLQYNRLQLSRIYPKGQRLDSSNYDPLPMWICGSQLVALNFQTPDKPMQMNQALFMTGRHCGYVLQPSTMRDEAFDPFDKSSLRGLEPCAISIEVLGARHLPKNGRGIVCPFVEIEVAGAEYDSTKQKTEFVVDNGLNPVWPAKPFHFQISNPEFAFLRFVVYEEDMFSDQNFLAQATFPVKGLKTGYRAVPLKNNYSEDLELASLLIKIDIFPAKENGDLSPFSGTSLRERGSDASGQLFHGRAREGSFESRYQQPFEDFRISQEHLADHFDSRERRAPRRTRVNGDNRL

[10] = molecular target: T3, 1-phosphatidylinositol 4,5-bisphosphate phosphodiesterase beta-3 (Homo sapiens, UniProt Q01970); experiment: Fluorescence-based biochemical high throughput dose response assay to identify inhibitors of phospholipase C isozymes (PLC-B3).
T3 sequence (Q01970 whole entry): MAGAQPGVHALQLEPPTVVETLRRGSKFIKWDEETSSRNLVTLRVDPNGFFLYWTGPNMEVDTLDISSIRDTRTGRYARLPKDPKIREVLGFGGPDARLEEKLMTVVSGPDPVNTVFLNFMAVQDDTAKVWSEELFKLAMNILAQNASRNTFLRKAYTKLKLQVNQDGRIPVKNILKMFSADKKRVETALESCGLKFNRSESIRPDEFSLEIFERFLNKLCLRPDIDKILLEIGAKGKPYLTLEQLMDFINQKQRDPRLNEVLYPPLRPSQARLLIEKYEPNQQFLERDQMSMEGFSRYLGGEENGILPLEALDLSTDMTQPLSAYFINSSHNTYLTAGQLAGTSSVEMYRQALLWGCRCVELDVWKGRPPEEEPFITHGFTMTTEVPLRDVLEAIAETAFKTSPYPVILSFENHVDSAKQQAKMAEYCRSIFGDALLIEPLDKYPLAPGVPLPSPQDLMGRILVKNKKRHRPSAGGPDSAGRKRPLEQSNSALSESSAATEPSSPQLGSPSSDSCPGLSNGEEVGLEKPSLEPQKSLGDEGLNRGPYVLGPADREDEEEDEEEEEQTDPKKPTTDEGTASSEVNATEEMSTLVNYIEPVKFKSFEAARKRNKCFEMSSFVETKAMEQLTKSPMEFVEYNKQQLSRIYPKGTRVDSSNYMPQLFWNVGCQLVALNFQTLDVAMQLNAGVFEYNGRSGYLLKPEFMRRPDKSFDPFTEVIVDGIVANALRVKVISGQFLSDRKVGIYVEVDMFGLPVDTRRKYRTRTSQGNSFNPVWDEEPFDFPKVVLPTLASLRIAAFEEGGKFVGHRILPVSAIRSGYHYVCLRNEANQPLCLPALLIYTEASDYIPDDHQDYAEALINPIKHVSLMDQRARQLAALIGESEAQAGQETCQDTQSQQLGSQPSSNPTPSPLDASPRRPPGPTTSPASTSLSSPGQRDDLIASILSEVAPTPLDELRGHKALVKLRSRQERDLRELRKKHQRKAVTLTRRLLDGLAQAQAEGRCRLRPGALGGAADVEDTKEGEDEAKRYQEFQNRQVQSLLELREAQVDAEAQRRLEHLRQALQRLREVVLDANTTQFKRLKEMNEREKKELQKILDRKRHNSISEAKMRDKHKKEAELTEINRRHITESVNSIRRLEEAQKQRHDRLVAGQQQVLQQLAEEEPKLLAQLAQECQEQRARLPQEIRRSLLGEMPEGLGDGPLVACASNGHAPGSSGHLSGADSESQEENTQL

Caspase-6 = molecular target: T4, Caspase-6 (Homo sapiens, UniProt P55212); experiment: inhibition of CASP6 peptide cleavage – biochemical, VEID-R110 fluorescence, cherry-pick, dose response (AID 720632)
T4 sequence (P55212 whole entry): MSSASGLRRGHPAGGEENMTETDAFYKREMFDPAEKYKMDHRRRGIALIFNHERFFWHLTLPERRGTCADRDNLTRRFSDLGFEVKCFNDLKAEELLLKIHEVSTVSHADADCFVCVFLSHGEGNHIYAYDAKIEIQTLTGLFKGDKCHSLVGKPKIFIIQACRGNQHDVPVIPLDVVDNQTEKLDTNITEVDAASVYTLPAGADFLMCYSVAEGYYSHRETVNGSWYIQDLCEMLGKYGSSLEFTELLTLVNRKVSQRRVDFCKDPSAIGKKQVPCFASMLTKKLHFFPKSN

Aminopeptidase N = molecular target: T5, Aminopeptidase N (Plasmodium falciparum FcB1/Columbia, UniProt O96935); experiment: malaria alanyl aminopeptidase activity blockers – biochemical, fluorogenic H-Leu-NHMec substrate, 1536-well (AID 1445); design: species or system Plasmodium falciparum 3D7, 3D7
T5 sequence (O96935 whole entry): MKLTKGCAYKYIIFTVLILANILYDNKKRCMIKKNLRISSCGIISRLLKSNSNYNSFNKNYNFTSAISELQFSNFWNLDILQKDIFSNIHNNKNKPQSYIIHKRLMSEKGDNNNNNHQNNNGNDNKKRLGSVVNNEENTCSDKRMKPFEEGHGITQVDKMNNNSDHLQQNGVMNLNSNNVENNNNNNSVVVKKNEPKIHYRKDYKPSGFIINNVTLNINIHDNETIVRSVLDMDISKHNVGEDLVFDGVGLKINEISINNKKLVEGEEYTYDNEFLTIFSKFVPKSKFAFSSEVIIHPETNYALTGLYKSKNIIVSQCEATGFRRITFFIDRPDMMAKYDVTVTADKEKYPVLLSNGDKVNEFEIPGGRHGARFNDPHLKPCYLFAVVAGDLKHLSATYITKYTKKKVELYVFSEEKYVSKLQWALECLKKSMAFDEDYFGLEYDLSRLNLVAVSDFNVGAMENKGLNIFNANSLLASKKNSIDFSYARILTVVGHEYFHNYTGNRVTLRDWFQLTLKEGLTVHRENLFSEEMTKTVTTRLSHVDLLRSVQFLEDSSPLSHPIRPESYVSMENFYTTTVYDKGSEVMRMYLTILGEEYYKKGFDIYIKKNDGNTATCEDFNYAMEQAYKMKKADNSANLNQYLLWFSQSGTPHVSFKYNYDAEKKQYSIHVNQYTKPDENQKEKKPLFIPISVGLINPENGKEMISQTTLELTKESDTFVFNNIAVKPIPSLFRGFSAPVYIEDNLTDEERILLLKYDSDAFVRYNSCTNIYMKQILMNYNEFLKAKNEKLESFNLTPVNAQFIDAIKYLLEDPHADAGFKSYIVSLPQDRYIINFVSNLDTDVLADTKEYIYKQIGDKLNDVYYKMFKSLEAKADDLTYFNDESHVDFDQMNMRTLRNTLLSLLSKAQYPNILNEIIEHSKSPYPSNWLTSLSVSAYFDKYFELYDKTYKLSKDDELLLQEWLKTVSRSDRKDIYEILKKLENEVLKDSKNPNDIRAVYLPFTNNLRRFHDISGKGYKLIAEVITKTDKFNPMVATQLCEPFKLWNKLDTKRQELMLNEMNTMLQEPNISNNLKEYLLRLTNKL

INS1 = experiment: INS-1E survival protection against cytokine death – cell-based, luminescence, retest, dose response (AID 449756); format: functional; settings: Rattus norvegicus, INS1;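 note: cell death triggered by IL-1 beta plus TNF-alpha plus IFN-gamma mixture; protective hits raise ATP signal compared with cytokine alone wells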

SMILES: O=C(O)C1CCCCC1C(=O)NCCc1ccc(F)cc1 (stereo not given)
- EC50 [1]: 1.39 µM (active)
- IC50 [2]: 8.15 µM (active)
- EC50 (cells [3]): > 29.9 µM (inactive)
- IC50 (cells [4]): > 29.9 µM (inactive)

SMILES: COc1cccc(-c2ccc([C@@H]3[C@@H]4CN(Cc5cccc(F)c5)C[C@H]3N4)cc2)c1
- AC50 [5]: 24.4 µM (active)
- AC50 [6]: 36 µM (active)
- AC50 [7]: 4.26 µM (active)
- AC50 [8]: 34 µM (active)

- IC50 (Protein Wnt-3a): 8.34 µM (active)
SMILES: C(#Cc1ccccc1)C[N+]1(CC#Cc2ccccc2)CCCC1

SMILES: Cc1cccc(CCNCc2cc3cc(C)cc(C)c3nc2O)c1
- EC50 [1]: 0.73 µM (active)
- IC50 [2]: 1.84 µM (active)
- EC50 (cells [3]): > 29.9 µM (inactive)
- IC50 (cells [4]): > 29.9 µM (inactive)

SMILES: Cc1ccnc(NC(=O)Nc2ccc3c(c2)OCO3)c1
- EC50 [1]: > 29.9 µM (inactive)
- IC50 [2]: > 29.9 µM (inactive)
- EC50 (cells [3]): > 29.9 µM (inactive)
- IC50 (cells [4]): > 29.9 µM (inactive)

- IC50 [9]: 44.7 µM (inactive)
- IC50 [10]: > 122 µM (inactive)
SMILES: O=S(=O)(CS(=O)(=O)c1ccccc1Br)c1ccccc1Br

- AC50 (Caspase-6): 17 µM (active)
- IC50 (Aminopeptidase N): 29.8 µM (active)
SMILES: COc1ccc(/C=C2\SC(=S)NC2=O)cc1OS(=O)(=O)c1ccc(NC(C)=O)cc1

SMILES: O=C(NC(c1cccnc1)C(F)(F)F)c1cc(COc2ccc3c(c2)CCCC3)on1 (stereo not given)
- IC50 (Protein Wnt-3a): 40.4 µM (inactive)
- AC50 (INS1): 3.48 µM (active)

- IC50 [9]: > 122 µM (inactive)
- IC50 [10]: > 122 µM (inactive)
SMILES: CC(C)(C)c1ccc(CNc2nc(-c3ccccn3)nnc2-c2ccccc2)cc1
